Laboratory results from ChEMBL document CHEMBL5236556, “Development of Cdc2-like Kinase 2 Inhibitors: Achievements and Future Directions” (J Med Chem, 2021).
Activity calls are given as the source filed them. The calls are words filed in the database; no cut-off is given here.

Key:
[1] = target: T1, Dual specificity protein kinase CLK2 (Homo sapiens, UniProt P49760); assay: Inhibition of human CLK2 administered orally
Target sequence in this assay (P49760 whole entry): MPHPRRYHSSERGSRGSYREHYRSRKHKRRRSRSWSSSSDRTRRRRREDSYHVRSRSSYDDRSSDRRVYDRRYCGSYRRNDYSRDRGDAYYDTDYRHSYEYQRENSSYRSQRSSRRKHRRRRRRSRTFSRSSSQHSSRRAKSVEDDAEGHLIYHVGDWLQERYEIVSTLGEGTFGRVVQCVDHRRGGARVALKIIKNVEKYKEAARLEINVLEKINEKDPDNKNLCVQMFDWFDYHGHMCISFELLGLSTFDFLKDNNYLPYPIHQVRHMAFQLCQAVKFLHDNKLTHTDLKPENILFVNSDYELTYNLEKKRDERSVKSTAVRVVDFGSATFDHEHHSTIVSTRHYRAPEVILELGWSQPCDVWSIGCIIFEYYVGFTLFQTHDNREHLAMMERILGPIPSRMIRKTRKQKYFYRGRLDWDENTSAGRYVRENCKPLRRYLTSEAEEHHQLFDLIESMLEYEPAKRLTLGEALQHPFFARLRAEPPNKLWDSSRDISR

[2] = target: T2, Dual specificity protein kinase CLK1 (Homo sapiens, UniProt P49759); assay: Inhibition of human CLK1 administered orally
[3] = target: T3, Dual specificity protein kinase CLK3 (Homo sapiens, UniProt P49761); assay: Inhibition of human CLK3 administered orally
Target sequence in this assay (P49761 whole entry): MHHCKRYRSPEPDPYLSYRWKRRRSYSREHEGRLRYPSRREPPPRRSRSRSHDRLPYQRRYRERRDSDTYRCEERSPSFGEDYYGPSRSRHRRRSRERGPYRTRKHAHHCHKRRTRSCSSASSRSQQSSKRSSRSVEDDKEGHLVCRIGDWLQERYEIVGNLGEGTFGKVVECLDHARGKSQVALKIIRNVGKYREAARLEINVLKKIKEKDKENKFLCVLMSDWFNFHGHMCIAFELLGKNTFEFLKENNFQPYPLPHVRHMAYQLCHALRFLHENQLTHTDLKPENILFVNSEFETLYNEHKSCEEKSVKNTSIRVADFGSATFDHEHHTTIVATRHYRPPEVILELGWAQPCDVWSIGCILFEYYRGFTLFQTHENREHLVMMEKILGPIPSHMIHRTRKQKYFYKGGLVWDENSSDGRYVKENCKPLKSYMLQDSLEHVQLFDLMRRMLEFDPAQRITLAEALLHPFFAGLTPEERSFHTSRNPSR

[4] = target: T4, Dual specificity protein kinase CLK4 (Homo sapiens, UniProt Q9HAZ1); assay: Inhibition of human CLK4 administered orally
[5] = Antifibrotic activity in TGF-beta1 induced primary human lung fibroblast; type: functional, cell-based
[6] = target: T1, Dual specificity protein kinase CLK2
Target sequence in this assay (P49760 whole entry): as the sequence (P49760 whole entry) above

[7] = target: T3, Dual specificity protein kinase CLK3
Target sequence in this assay (P49761 whole entry): as the sequence (P49761 whole entry) above

[8] = target: T4, Dual specificity protein kinase CLK4
PC-3 = assay: Cytotoxicity against human PC-3 cells; type: functional, cell-based
MCF7 = assay: Cytotoxicity against human MCF7 cells; type: functional, cell-based
Homo sapiens [9] = species on record: Homo sapiens; assay: Inhibition of DYRK kinase (unknown origin) at 100 uM
[10] = target: T2, Dual specificity protein kinase CLK1
[11] = target: T2, Dual specificity protein kinase CLK1; assay: Inhibition of CLK1 (unknown origin)
[12] = target: T1, Dual specificity protein kinase CLK2; assay: Inhibition of CLK2 (unknown origin)
Target sequence in this assay (P49760 whole entry): as the sequence (P49760 whole entry) above

[13] = target: SRSF protein kinase 1 (Homo sapiens) (UniProt Q96SB4); assay: Inhibition of SRSF phosphorylation in human HeLa cells; type: cell-based
Homo sapiens [14] = species on record: Homo sapiens; assay: Selectivity ratio of IC50 for inhibition of human CLK3 to IC50 for inhibition of human CLK2 by biochemical caliper assay
Cancer cell lines = assay: Antiproliferative activity against cancer cells (unknown origin); type: functional, cell-based; settings: Homo sapiens
T-24 = assay: Cytotoxicity against T24 cells (unknown origin) assessed as supressed cell growth; type: functional, cell-based; settings: Homo sapiens
MDA-MB-231 = assay: Cytotoxicity against MDA-MB-231 cells (unknown origin) assessed as supressed cell growth; type: functional, cell-based; settings: Homo sapiens
[15] = target: T1, Dual specificity protein kinase CLK2; assay: Inhibition of human CLK2 at 1 uM
Target sequence in this assay (P49760 whole entry, looked up): as the sequence (P49760 whole entry) above

[16] = target: T1, Dual specificity protein kinase CLK2; assay: Inhibition of human CLK2 measured by DSF assay
Target sequence in this assay (P49760 whole entry, looked up): as the sequence (P49760 whole entry) above

[17] = target: T3, Dual specificity protein kinase CLK3; assay: Inhibition of human CLK3 assessed as residual activity at 3 uM
Target sequence in this assay (P49761 whole entry, looked up): as the sequence (P49761 whole entry) above

[18] = test system: Triple-negative breast cancer cell; assay: Antitumour activity expressed in triple negative breast cells (unknown origin) with dysfunctional G1-S checkpoint; type: functional, cell-based; settings: Homo sapiens
Lung cancer cell line = assay: Cytotoxicity against lung cancer cells (unknown origin); type: functional, cell-based; settings: Homo sapiens
Mus musculus = species on record: Mus musculus; assay: Induction of autophagy in APAP induced liver injury mouse model; type: functional, organism-based

T2 sequence (P49759 whole entry): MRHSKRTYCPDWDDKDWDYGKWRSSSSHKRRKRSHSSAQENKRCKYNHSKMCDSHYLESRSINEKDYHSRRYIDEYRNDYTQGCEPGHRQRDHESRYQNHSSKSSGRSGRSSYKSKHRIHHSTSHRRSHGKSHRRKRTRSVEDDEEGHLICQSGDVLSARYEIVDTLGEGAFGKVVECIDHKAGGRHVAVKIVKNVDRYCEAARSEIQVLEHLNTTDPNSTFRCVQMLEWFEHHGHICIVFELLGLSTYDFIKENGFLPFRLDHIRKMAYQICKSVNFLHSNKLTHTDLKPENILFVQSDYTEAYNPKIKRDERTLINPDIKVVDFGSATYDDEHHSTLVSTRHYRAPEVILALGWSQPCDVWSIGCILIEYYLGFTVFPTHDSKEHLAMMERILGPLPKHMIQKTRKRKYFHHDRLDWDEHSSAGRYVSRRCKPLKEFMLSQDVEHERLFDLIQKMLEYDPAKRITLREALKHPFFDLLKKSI
T4 sequence (Q9HAZ1 whole entry): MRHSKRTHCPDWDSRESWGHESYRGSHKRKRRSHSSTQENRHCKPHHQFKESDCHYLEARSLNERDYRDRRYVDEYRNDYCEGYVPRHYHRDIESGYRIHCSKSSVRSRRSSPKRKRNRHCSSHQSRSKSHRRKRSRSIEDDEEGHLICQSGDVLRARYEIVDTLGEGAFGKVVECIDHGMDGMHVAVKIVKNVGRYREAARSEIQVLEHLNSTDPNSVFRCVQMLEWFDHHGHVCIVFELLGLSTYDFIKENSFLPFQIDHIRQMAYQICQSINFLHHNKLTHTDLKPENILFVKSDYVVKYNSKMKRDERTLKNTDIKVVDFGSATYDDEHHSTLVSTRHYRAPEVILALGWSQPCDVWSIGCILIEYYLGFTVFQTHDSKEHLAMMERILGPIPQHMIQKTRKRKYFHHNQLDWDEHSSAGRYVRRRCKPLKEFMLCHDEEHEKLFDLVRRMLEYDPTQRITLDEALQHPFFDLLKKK
Chain of SRSF protein kinase 1 (Homo sapiens) (Q96SB4 whole entry): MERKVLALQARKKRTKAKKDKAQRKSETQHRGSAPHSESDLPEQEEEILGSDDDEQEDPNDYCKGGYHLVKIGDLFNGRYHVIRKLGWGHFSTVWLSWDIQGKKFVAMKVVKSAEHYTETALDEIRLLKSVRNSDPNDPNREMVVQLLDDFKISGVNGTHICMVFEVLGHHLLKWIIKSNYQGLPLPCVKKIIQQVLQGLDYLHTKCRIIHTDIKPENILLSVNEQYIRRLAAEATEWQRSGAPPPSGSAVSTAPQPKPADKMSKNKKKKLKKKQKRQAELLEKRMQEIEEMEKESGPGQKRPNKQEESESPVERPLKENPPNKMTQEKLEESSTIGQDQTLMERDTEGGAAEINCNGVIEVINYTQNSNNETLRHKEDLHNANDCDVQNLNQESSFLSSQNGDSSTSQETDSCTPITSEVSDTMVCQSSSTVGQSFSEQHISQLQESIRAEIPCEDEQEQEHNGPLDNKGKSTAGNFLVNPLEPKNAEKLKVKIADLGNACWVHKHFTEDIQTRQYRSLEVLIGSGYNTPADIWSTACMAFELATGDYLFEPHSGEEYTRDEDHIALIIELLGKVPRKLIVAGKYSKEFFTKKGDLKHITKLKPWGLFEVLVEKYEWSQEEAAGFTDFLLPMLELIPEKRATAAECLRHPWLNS

| SMILES | IC50 [6] [nM] | IC50 [7] [nM] | IC50 [10] [nM] | further results |
| --- | --- | --- | --- | --- |
| CNc1nc(NCc2ncccn2)c2c(-c3ccc4ncccc4c3)c[nH]c2n1 | – | – | – | IC50 [1]: 0.096 nM; IC50 [2]: 4.8 nM; IC50 [3]: 6.5 nM; IC50 [4]: 0.61 nM |
| O=C(Nc1cccnc1)c1c[nH]nc1-c1nc2c(-c3cccc(F)c3)cccc2[nH]1 | 11 | – | – | EC50 [5]: 18 nM |
| O=[N+]([O-])c1ccccc1-n1cc(COc2cccc3cnc(Nc4cccc(Cl)c4)nc23)nn1 | 27 | > 1000 | 11 | IC50 [8]: 20 nM; IC50 (PC-3): 7000 nM; IC50 (MCF7): 4000 nM; inhibition (Homo sapiens [9]): inactive |
| COc1cccc2c1[nH]c1c3ccncc3cc(C#N)c21 | – | – | – | IC50 [11]: 44 nM; IC50 [12]: 41 nM |
| CN1CCN(C(=O)C(C)(C)c2ccc(C(=O)Nc3cn4cc(-c5ccncc5)ccc4n3)cc2)CC1 | – | – | – | inhibition [13]: Dose-Dependent Effect |
| Cc1[nH]nc2ccc(-c3cncc(OC[C@@H](N)CC(C)C)c3)cc12 | – | – | – | Ratio IC50 (Homo sapiens [14]): 225 |
| O=C1NCc2ccc3c(-c4cccc(Cl)c4)c[nH]c3c21 | 510 | 28 | 88 | Activity (Cancer cell lines): Active |
| O=C1NCc2c(Cl)cc3c(-c4ccccc4)c[nH]c3c21 | 33 | 300 | 380 | – |
| COc1ccc2sc(C(=O)N(C)Cc3cccc(F)c3)cc2c1 | 19.1 | – | 7 | IC50 [8]: 2.3 nM; Activity (T-24): Active; Activity (MDA-MB-231): Active |
| COc1c(O)ccc2c(=O)c3c(O)cc4c(c3[nH]c12)C=CC(C)(C)O4 | – | > 2000 | 210 | – |
| COc1ccc2sc(C(=O)N(C)OC)cc2c1 | – | – | – | inhibition [15]: 73% |
| N=C1NC(=O)/C(=C/c2ccc3c(c2)CCO3)S1 | 6800 | – | – | – |
| c1cc(-c2ccc3[nH]ncc3c2)ccn1 | – | – | 113 | inhibition [15]: 85% |
| COc1cc(/C=C2\N=C(N)NC2=O)ccc1O [POLYANDROCARPAMINE A] | 640 | > 2000 | 470 | IC50 [8]: 470 nM |
| CC(C)(CO)c1ccc(C(=O)Nc2cn3cc(-c4cn[nH]c4)ccc3n2)cn1 | 2.1 | – | 1.1 | – |
| CN1C(=O)/C(=C/c2ccc3c(c2)OCO3)N=C1N [LEUCETTAMINE B] | 720 | – | – | – |
| c1csc(CNc2ncnc3ccc(-c4ccc5c(c4)OCO5)cc23)c1 | 680 | 470 | 37 | IC50 [8]: 50 nM |
| CC(C)(C)c1ccc(C(=O)Nc2cn3cc(-c4ccncc4)ccc3n2)cn1 | 2.4 | – | 1.1 | – |
| O=C(O)c1nc2ccccc2c2[nH]c3c(Cl)cccc3c12 | – | > 100 | 130 | IC50 [8]: 45 nM |
| CCOC(=O)c1c(/C(C#N)=C\N)c2ccc(Cl)c(Cl)c2n1C | – | – | – | inhibition [16]: Active |
| CC(C)n1cnc2c(Nc3cc(N)cc(Cl)c3)nc(NC3CCCCC3N)nc21 (stereo not drawn) | 6 | 1000 | 17 | IC50 [8]: 25 nM |
| CNC(=O)c1ccc(Nc2nc(OC3CCCC3)c3c(-c4ccc5nc(C)oc5c4)c[nH]c3n2)c(OC)c1 | – | – | – | Activity [17]: 60%; Activity [18]: Active; Activity (Lung cancer cell line): Active |
| COc1ccc(NC(=O)c2n[nH]c3ccc(-c4cncc(CN5CCCCC5)c4)cc23)cc1 | 0.822 | – | – | – |
| COc1cc(Nc2nccc(-c3cnn4nc(OC)ccc34)n2)cc(C(F)(F)F)c1 | – | – | 13 | – |
| C[C@@H](c1ccc(F)cc1)n1nnc2cnc3ccc(-c4ccc5ocnc5c4)cc3c21 | – | 8 | – | Activity (Mus musculus): Active |
| Cc1ccc(CNc2ncnc3ccc(-c4ccc(CO)o4)cc23)o1 | – | > 10000 | – | – |
| CC(C)c1cnn2c(NCc3ccc(-c4ccccn4)cc3)nc(N[C@H]3CC[C@H](N)CC3)nc12 | 130 | 2.9 | 100 | IC50 [8]: 89 nM |
| O=C1NC(Nc2ccccc2)=N/C1=C\c1ccc2c(c1)OCO2 | – | > 10000 | – | IC50 [8]: 64 nM |
| Cc1nc2ccc3sc(NC(=O)c4ccc5scnc5c4)nc3c2s1 | 68 | 346 | 51 | – |
